As a reminder, the IC50 is the point on the concentration scale where inhibition reaches its midpoint.

In patent US7074814B2, “3-substituted indoles and derivatives thereof as therapeutic agents” (Warner-Lambert Company LLC, priority 2003, dated 2006) one finds IC50 data, which are given here for 7 compounds.

T1 sequence (P48736 whole entry, species assumed): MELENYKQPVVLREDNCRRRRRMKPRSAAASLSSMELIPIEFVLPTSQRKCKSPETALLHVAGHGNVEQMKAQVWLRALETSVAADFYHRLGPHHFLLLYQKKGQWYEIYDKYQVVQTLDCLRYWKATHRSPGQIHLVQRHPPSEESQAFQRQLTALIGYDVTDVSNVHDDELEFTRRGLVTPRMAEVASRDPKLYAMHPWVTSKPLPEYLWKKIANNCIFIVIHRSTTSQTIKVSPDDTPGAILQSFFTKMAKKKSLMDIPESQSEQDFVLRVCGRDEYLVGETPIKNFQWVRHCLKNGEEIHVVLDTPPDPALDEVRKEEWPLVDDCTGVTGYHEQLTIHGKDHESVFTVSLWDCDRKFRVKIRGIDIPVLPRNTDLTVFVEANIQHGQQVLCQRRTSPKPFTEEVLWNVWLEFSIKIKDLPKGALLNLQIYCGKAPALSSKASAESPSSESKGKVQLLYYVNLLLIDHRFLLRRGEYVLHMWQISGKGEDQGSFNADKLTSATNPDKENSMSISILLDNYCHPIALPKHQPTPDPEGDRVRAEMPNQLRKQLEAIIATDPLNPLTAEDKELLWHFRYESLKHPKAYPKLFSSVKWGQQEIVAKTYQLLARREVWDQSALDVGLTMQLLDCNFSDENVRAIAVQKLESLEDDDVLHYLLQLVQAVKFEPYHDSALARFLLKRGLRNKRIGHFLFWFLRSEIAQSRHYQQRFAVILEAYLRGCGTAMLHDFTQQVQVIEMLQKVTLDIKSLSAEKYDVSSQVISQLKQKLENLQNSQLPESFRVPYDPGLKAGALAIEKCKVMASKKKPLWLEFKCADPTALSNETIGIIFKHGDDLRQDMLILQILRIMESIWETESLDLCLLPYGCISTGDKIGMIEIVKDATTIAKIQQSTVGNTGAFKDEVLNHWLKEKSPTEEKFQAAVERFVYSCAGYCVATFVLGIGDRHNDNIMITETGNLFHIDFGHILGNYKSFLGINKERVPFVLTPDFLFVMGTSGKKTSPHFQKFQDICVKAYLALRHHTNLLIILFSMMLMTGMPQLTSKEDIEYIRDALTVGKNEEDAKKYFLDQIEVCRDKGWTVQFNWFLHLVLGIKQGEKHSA
T1 sequence (Q8WYR1 whole entry partner, species assumed): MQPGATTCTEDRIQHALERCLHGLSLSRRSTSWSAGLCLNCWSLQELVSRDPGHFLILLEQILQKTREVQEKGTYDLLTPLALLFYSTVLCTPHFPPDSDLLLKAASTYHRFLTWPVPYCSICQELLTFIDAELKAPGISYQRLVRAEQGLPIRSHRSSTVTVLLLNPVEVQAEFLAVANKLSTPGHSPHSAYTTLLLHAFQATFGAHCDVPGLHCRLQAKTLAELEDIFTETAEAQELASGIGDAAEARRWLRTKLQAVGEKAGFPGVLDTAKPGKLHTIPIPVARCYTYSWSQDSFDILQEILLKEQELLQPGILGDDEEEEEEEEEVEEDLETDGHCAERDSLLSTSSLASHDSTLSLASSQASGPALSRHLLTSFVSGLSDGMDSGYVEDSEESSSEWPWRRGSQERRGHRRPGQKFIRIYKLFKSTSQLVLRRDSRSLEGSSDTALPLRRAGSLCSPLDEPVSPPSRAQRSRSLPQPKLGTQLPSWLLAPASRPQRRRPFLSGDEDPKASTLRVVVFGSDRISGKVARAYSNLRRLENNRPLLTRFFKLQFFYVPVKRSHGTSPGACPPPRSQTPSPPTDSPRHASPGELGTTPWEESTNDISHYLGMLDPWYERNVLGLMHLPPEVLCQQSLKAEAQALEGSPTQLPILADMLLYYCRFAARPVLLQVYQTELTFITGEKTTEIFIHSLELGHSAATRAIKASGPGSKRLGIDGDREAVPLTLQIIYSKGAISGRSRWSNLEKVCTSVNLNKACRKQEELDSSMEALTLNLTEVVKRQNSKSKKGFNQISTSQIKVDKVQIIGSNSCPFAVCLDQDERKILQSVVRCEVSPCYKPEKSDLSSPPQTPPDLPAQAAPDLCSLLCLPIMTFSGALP

This test addresses T1, p101/p110γ protein (PI3Kγ) (Homo sapiens, UniProt P48736).
T1 construct: HA; made in house; host or cells: Spodoptera frugiperda (Sf9) cells, baculovirus coinfection
In words: PI3Kγ in vitro kinase assay. The format is biochemical. Particulars: purified recombinant p101/p110γ with G protein β1/γ2 subunits; 20 μM ATP, 25 μM PIP2; 20 minutes at room temperature. Here is the method:
Spodtera frugiperda cells, grown in ESF921 media, were coinfected with baculovirus expressing a glu-tagged p101 and baculovirus expressing an HA-tagged p110γ, at a 3:1 ratio of p101 baculovirus to p110γ baculovirus. Sf9 cells were grown to 1×10^7 total cells/mL in 10 L bioreactors and harvested 48–72 hours post infection. Samples of infected cells were then tested for expression of […] PI3 kinase by immunoprecipitation and Western Blot analysis methods (see below).
To purify PI3Kγ, 4 volumes of room temperature hypotonic lysis buffer (1 mM MgCl2, 1 mM DTT, 5 mM EGTA, 1 mM Pefabloc, 0.5 μM aprotinin, 5 μM leupeptin, 2 μM pepstatin, 5 μM E64, pH 8) per gram of cell paste, was poured onto frozen cell pellets with stirring, then lysed in a nitrogen “bomb” at 400 psi (599HC T316, Parr Instrument Co, Moline, Ill.). NaCl was added to 150 mM, and sodium cholate was added to 1% and mixed for another 45 minutes. The lysates were clarified by centrifugation for 25 minutes at 14,000 rpm. The lysates were then loaded over anti-glu-linked Protein-G Sepaharose beads (Covance Research Products, Richmond, Calif.) using 20 mL resin/50 g cell paste. The column was washed with 15 volumes of wash buffer (1 mM DTT, 0.2 mM EGTA, 1 mM Pefabloc, 0.5 μM aprotinin, 5 μM leupeptin, 2 μM pepstatin, 5 μM E64, 150 mM NaCl, 1% sodium cholate, pH 8). PI3Kγ was eluted with 6 column volumes of wash buffer that contain 100 μg/mL of a peptide that competes for binding of the glu tag. The column fractions with the eluted protein (determined by taking OD280 readings) were collected and dialyzed in 0.2 mM EGTA, 1 mM DTT, 1 mM Pefabloc, 5 μM leupeptin, 0.5% sodium cholate, 150 mM NaCl, and 50% glycerol, pH 8. The fractions were stored at −80° C. until further use.
Spodtera frugiperda cells were coinfected with baculovirus expressing a glu-tagged G protein β1 and baculovirus expressing a G protein β2, at a 1:1 ratio of glu-tagged G protein β1 baculovirus to G protein β2 baculovirus. Sf9 cells are grown in 10 L bioreactors and harvested 48–72 hours post infection. Samples of infected cells were tested for G protein β1/β2 expression by Western Blot analysis, as described below. Cell lysates were homogenized and loaded onto a column of glu-tagged beads as in Biological Example 1 and competed off the column with a glu peptide and processed as described in Biological Example 1.
The inhibitory properties of the compounds in Table 1 were assayed in an in vitro PI3K assay. In a 96-well polypropylene plate, each well was spotted with 2 μL of 50 times the desired final concentration of compound in DMSO. Purified recombinant p101/p110γ protein (0.03 μg; ˜2.7 nM) and G protein β1/γ2 subunits (0.09 μg; ˜57.7 nM) for each reaction was combined in the assay buffer (30 mM HEPES, 100 mM NaCl, 1 mM EGTA, and 1 mM DTT). ATP and [γ-^32P-ATP] (0.09 μCi) were added to this mixture so that the final ATP concentration in the reaction was 20 μM. Lipid micelles were formed by sonicating phosphatidylinositol-4,5-diphosphate (PIP2), phosphatidylethanolamine (PE), and Na-cholate in the assay buffer for 10 minutes, adding MgCl2 and incubating on ice for 20 minutes, for final concentrations of 25 μM PIP2, 300 μM PE, 0.02% Na-cholate, and 10 mM MgCl2 in the reaction. The reactions were started by adding equal volumes lipid and enzyme mixture in a total volume of 50 μL, allowed to run for 20 minutes at room temperature, and stopped with 100 μL 75 mM H3PO4. The lipid product was transferred to a glass fiber filter plate and washed with 75 mM H3PO4 several times. The presence of radioactive lipid product (PIP3) was measured by adding Wallac Optiphase mix to each well and counting in a Wallac 1450 Trilux plate reader (PerkinElmer Life Sciences Inc., Boston, Mass. 02118). The IC50 for each compound tested is reported in μM in Table 1: […]
As for “1-Ethyl-5,6-dimethoxy-3-phenyl-1H-indole-2-carboxylic acid (1H-tetrazol-5-yl)-amide [Example 6]”, the IC50 amounted to 6.6 µM.

For “5,6-Dimethoxy-3-phenyl-1-propyl-1H-indole-2-carboxylic acid (1H-tetrazol-5-yl)-amide [Example 7]”, the IC50 was 4.15 µM.

Turning to `COc1cc2[nH]c(C(=O)Nc3nn[nH]n3)c(Sc3ccccc3C)c2cc1OC` [Example 1, 5,6-Dimethoxy-3-o-tolylsulfanyl-1H-indole-2-carboxylic acid (2H-tetrazol-5-yl)-amide], the IC50 was 0.585 µM. As for `COc1cc2[nH]c(C(=O)Nc3nn[nH]n3)c(Sc3ccc(Cl)c(Cl)c3)c2cc1OC` [Example 2, 3-(3,4-Dichloro-phenylsulfanyl)-5,6-dimethoxy-1H-indole-2-carboxylic acid (2H-tetrazol-5-yl)-amide], the IC50 is 1.84 µM. For the compound `COc1cc2c(Sc3ccccc3)c(C(=O)Nc3nn[nH]n3)n(C)c2cc1OC` [Example 3, 5,6-Dimethoxy-1-methyl-3-phenylsulfanyl-1H-indole-2-carboxylic acid (2H-tetrazol-5-yl)-amide], the concentration for half-maximal inhibition (IC50) worked out at 0.55 µM.

Turning to `COc1cc2[nH]c(C(=O)Nc3nn[nH]n3)c(Sc3ccccc3)c2cc1OC` [Example 4, 5,6-Dimethoxy-3-phenylsulfanyl-1H-indole-2-carboxylic acid (2H-tetrazol-5-yl)-amide], the concentration for half-maximal inhibition (IC50) amounted to 0.21 µM. Take `COc1cccc(Sc2c(C(=O)Nc3nn[nH]n3)[nH]c3cc(OC)c(OC)cc23)c1` [Example 5, 5,6-Dimethoxy-3-(3-methoxy-phenylsulfanyl)-1H-indole-2-carboxylic acid (2H-tetrazol-5-yl)-amide]: the half-maximal inhibitory concentration (IC50) is 0.725 µM.
